“Also recorded” adds a separate entry of the source.
Legend:
Fmr1−/− mice [1] = experiment: Direct social interaction test; type: in vivo
Protocol: (§1) Sodium bromide (anhydrous, Sigma-Aldrich, Saint-Quentin, France) dissolved in saline solution (NaCl, 0.9%) at the dose of 250 or 500 mg/kg, or vehicle (NaCl, 0.9%), was administered intraperitoneally once a day for 19 days in a volume of 20 ml/kg. On testing days, bromide was administered 30 min before behavioural assays. Bumetanide (Tocris, provided by Bio-Techne, Lille, France) dissolved in NaCl 0.9% at the dose of 0.5 mg/kg (Deidda et al, 2015) or vehicle was administered intraperitoneally once a day for 19 days in a volume of 20 ml/kg.
(§2) Behavioural assays started after a week of daily bromide (or bumetanide) treatment.
(§3) Direct social interaction.

Shank3B−/− mice = experiment: Direct social interaction test; type: in vivo
Protocol: as §1, §2, §3

Fmr1−/− mice [2] = experiment: Marble burying test; type: in vivo; conditions: Fmr1−/− and Fmr1+/+ mice; bromide 250 mg/kg i.p. daily
Protocol: as §1, §2

Fmr1−/− mice [3] = experiment: Novelty-suppressed feeding test; type: in vivo; conditions: bromide 250 mg/kg i.p. daily
Protocol: as §1, §2
Novelty-suppressed feeding. […] Immediately after an eating event, the mouse was transferred back to the home cage (free from cage-mates) and allowed to feed on lab chow for 5 min.

Oprm1−/− mice = experiment: Marble burying test; conditions: bromide 125, 250, 500 mg/kg i.p. daily
[4] = social interaction and three-chamber tests, bromide 250 mg/kg

[Br-].[Na+] [bromide, Sodium bromide]
number of following episodes (Fmr1−/− mice [1]; bromide 250 mg/kg i.p. daily): normalized
number of grooming episodes (Fmr1−/− mice [1]; bromide 250 mg/kg i.p. daily): reduced
number of grooming episodes occurring after a social contact (Fmr1−/− mice [1]; bromide 250 mg/kg i.p. daily): reduced
number of, time spent in and duration of paw contacts (Fmr1−/− mice [1]; bromide 250 mg/kg i.p. daily): normalized
time spent in nose contact and duration of nose contacts (Fmr1−/− mice [1]; bromide 250 mg/kg i.p. daily): normalized
time spent in social contact (Fmr1−/− mice [1]; bromide 250 mg/kg i.p. daily): normalized
sociability parameters (overall) (Fmr1−/− mice [1]; [4]): efficiently restores
number of following episodes (Shank3B−/− mice; bromide 250 mg/kg i.p. daily): restored to wild-type levels; also recorded: reduced
number of grooming episodes (Shank3B−/− mice; bromide 250 mg/kg i.p. daily): reduced
number of grooming episodes occurring after a social contact (Shank3B−/− mice; bromide 250 mg/kg i.p. daily): reduced
number of, time spent in and duration of paw contacts (Shank3B−/− mice; bromide 250 mg/kg i.p. daily): restored to wild-type levels; also recorded: reduced
time spent in nose contact, number and duration of nose contacts (Shank3B−/− mice; bromide 250 mg/kg i.p. daily): restored to wild-type levels; also recorded: reduced
sociability parameters (overall) (Shank3B−/− mice; [4]): efficiently restores
number of marbles buried (Fmr1−/− mice [2]): reduced
food intake back in the home cage (Fmr1−/− mice [3]; Fmr1 line): did not modify
exacerbated anxiety (overall) (Fmr1−/− mice [3]; Fmr1−/− mice): can reduce
feeding latency (Fmr1−/− mice [3]; Fmr1−/− mice): reduced the feeding latency to wild-type level; also recorded: decreased
number of marbles buried (Oprm1−/− mice): reduced; also recorded: diminished
